Test results reported in US20260201008A1, “SECRETIN-DERIVED GLP1R SELECTIVE AGONISTS” (GUBRA A/S, priority 2023, published 2026).
Where two headings read alike, the source gives them in different places. Numbered stars: 1 amine (or outer) side, 2 acyl side, 3 side chain; on linkers, the order of the positions; unused ones are H or OH. Square brackets hold non-standard residues; d marks the D form. Side chains are listed from the residue outwards. Peptide text beside a SMILES is read from it. * marks the point of attachment. C20 diacid = O=C(O)CCCCCCCCCCCCCCCCCCC(=O)*; γGlu = O=C(O)[C@H](CCC(=O)[*:2])N[*:1]; AEEA = NCCOCCOCC(=O)O; Aib = CC(C)(N)C(=O)O

Experiments:
[1] = target: SCTR (Homo sapiens, UniProt P47872); assay: hSCTR potency, cAMP accumulation in CHO-K1 cells stably overexpressing hSCTR; type: cell-based; design: alternatively Euroscreen ES-712-AF; FAST-0161L; host or cells: CHO-K1; conditions: cAMP accumulation, CHO-K1 cells overexpressing hSCTR
Chain of SCTR (P47872 23-440): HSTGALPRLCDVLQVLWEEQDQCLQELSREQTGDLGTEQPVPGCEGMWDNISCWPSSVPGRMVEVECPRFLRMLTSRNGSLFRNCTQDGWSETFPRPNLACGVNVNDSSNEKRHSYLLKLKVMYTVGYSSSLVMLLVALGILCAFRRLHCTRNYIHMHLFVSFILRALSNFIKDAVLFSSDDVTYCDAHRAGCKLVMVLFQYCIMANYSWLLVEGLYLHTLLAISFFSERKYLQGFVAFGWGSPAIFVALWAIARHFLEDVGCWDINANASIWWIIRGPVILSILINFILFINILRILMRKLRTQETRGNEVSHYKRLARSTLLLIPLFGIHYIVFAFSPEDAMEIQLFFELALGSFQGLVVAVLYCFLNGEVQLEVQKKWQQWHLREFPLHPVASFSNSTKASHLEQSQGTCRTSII
In short: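 Read-out is TR-FRET cAMP detection, recorded one hour after reagent addition, in CHO-K1 cells stably overexpressing hSCTR. Cells in DPBS containing 0.05% casein and 0.5 mM IBMX are exposed to graded peptide doses for 30 min at room temperature, with human secretin as reference agonist.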

[2] = Turbidity of crude library peptides (absorbance at 600 nm); type: physicochemical; conditions: Physical stability of peptides
In short: (§1)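 Crude peptides at 267 μM in 50 mM sodium acetate pH 4.0 or 50 mM sodium phosphate pH 7.0, pre-incubated 1-2 h at room temperature, then 4 μM final ThT added. Turbidity read first as A600. ThT fluorescence (ex 450/em 480 nm) read every 10 min for 72 h at 40° C, with 5 min shaking before each read; fibril formation = average emission.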

[3] = target: GLP1R (Homo sapiens, UniProt P43220); assay: hGLP1R potency, cAMP accumulation in CHO-K1 cells stably overexpressing hGLP1R; type: cell-based; design: host or cells: CHO-K1; conditions: for EC50: cAMP accumulation, CHO-K1 cells overexpressing hGLP1R; for SCTR EC50/GLP1R EC50 ratio: selectivity for hGLP1R over hSCTR, cAMP accumulation in CHO-K1 cells
Chain of GLP1R (P43220 24-463): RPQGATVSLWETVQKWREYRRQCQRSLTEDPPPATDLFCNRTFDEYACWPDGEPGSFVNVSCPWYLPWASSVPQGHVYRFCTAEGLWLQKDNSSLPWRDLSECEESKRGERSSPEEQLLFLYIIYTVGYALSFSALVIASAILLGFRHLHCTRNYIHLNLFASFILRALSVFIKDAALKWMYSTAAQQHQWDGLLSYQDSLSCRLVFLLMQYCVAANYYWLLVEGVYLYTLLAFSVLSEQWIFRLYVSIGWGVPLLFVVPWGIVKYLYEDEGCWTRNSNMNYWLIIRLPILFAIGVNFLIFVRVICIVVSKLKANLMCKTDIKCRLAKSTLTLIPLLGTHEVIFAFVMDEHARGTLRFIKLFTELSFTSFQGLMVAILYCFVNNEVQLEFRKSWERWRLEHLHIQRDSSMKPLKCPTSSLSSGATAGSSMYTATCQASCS
In short: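 Thawed cells go straight into buffer containing 0.5 mM IBMX and 0.05% casein, get graded compound doses for 30 min at room temperature, and are then assayed for accumulated cAMP by time-resolved FRET. Human GLP-1(7-36) serves as positive control; EC50 is derived by nonlinear regression.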

[4] = Fibril formation of crude library peptides (Thioflavin T); type: physicochemical; design: key: average ThT fluorescence emission at 480 nm (ex 450 nm), raw units; conditions: Physical stability of peptides
In short: as §1

[5] = read-out: hSCTR pEC50 (converted)
[6] = read-out: hGLP1R pEC50 (converted)

| EC50 ([1]; read-out: pEC50 hSCTR (converted)) [nM] | Turbidity (pH 7) [2] | Selectivity ([3]; SCTR EC50/GLP1R EC50 ratio) | EC50 ([3]; read-out: pEC50 hGLPR1 (converted)) [nM] | Fibril formation [4] | EC50 [1, 5] [nM] | EC50 [3, 6] [nM] | SCTR EC50/GLP1R EC50 ratio [3] | Compound |
| --- | --- | --- | --- | --- | --- | --- | --- | --- |
| 79.4 | 0.09 | 6907 | 0.0126 | 14563 | – | – | – | CC(C)C[C@H](NC(=O)[C@H](Cc1ccccc1)NC(=O)[C@H](CCCNC(=N)N)NC(=O)[C@H](CCC(N)=O)NC(=O)[C@H](CCC(N)=O)NC(=O)[C@H](C)NC(=O)[C@H](C)NC(=O)C(C)(C)NC(=O)[C@H](CCC(=O)O)NC(=O)[C@H](CCCCNC(=O)COCCOCCNC(=O)COCCOCCNC(=O)CC[C@H](NC(=O)CCCCCCCCCCCCCCCCCCC(=O)O)C(=O)O)NC(=O)[C@H](CC(C)C)NC(=O)[C@H](CCC(=O)O)NC(=O)[C@H](CO)NC(=O)[C@@H](NC(=O)[C@H](CC(=O)O)NC(=O)[C@H](CO)NC(=O)[C@@H](NC(=O)[C@H](Cc1ccccc1)NC(=O)[C@@H](NC(=O)CNC(=O)[C@H](CCC(=O)O)NC(=O)C(C)(C)NC(=O)[C@@H](N)Cc1c[nH]cn1)[C@@H](C)O)[C@@H](C)O)C(C)C)C(=O)N[C@@H](CCC(=O)O)C(=O)N[C@@H](Cc1c[nH]cn1)C(=O)N[C@@H](CC(C)C)C(=O)N[C@H](C(N)=O)C(C)C [compound 5] (H-H[Aib]EGTFTSDVSELK([AEEA-AEEA-γGlu-C20 diacid])E[Aib]AAQQRFLEHLV-NH2) |
| – | 0.08 | – | – | 3983 | 39.8 | 0.0126 | 3669 | CC(C)C[C@H](NC(=O)[C@H](Cc1ccccc1)NC(=O)[C@H](CCCNC(=N)N)NC(=O)[C@H](CCC(N)=O)NC(=O)[C@H](CC(C)C)NC(=O)C(C)(C)NC(=O)[C@H](C)NC(=O)[C@H](CCC(=O)O)NC(=O)[C@H](CCC(=O)O)NC(=O)[C@H](CCCCNC(=O)COCCOCCNC(=O)COCCOCCNC(=O)CC[C@H](NC(=O)CCCCCCCCCCCCCCCCCCC(=O)O)C(=O)O)NC(=O)[C@H](CC(C)C)NC(=O)C(C)(C)NC(=O)[C@H](CO)NC(=O)[C@@H](NC(=O)[C@H](CC(=O)O)NC(=O)[C@H](CO)NC(=O)[C@@H](NC(=O)[C@H](Cc1ccccc1)NC(=O)[C@@H](NC(=O)CNC(=O)[C@H](CCC(=O)O)NC(=O)C(C)(C)NC(=O)[C@@H](N)Cc1c[nH]cn1)[C@@H](C)O)[C@@H](C)O)C(C)C)C(=O)N[C@@H](CCC(=O)O)C(=O)N[C@@H](Cc1c[nH]cn1)C(=O)N[C@@H](CC(C)C)C(=O)N[C@H](C(N)=O)C(C)C [compound 163] (H-H[Aib]EGTFTSDVS[Aib]LK([AEEA-AEEA-γGlu-C20 diacid])EEA[Aib]LQRFLEHLV-NH2) |
| – | 0.09 | – | – | 3415 | 316 | 0.00251 | 121171 | CC(C)C[C@H](NC(=O)[C@H](Cc1ccccc1)NC(=O)[C@H](CCCNC(=N)N)NC(=O)[C@H](CCC(N)=O)NC(=O)[C@H](CCC(N)=O)NC(=O)C(C)(C)NC(=O)[C@H](C)NC(=O)[C@H](CCC(=O)O)NC(=O)[C@H](CCC(=O)O)NC(=O)[C@H](CCCCNC(=O)COCCOCCNC(=O)COCCOCCNC(=O)CC[C@H](NC(=O)CCCCCCCCCCCCCCCCCCC(=O)O)C(=O)O)NC(=O)[C@H](CC(C)C)NC(=O)[C@H](Cc1ccc(O)cc1)NC(=O)[C@H](CO)NC(=O)[C@@H](NC(=O)[C@H](CC(=O)O)NC(=O)[C@H](CO)NC(=O)[C@@H](NC(=O)[C@H](Cc1ccccc1)NC(=O)[C@@H](NC(=O)CNC(=O)[C@H](CCC(=O)O)NC(=O)C(C)(C)NC(=O)[C@@H](N)Cc1c[nH]cn1)[C@@H](C)O)[C@@H](C)O)C(C)C)C(=O)N[C@@H](CCC(=O)O)C(=O)N[C@@H](Cc1c[nH]cn1)C(=O)N[C@@H](CC(C)C)C(=O)N[C@H](C(N)=O)C(C)C [compound 157] (H-H[Aib]EGTFTSDVSYLK([AEEA-AEEA-γGlu-C20 diacid])EEA[Aib]QQRFLEHLV-NH2) |
